# Measurements: patent US6797726B1, “N-alkoxyalkyl-N,N-dialkylamine derivatives or salts thereof, and remedies for nerve degeneration diseases containing the same” (Toyama Chemical Co., Ltd., priority 1999, dated 2004)
# What was measured:
# [1] = system: cultured nerve cell death induced by Aβ; assay: Activity of inhibiting the Aβ-induced nerve cell death (MTT assay); assay type: cell-based, Wistar rat; settings: 0.1 μM; Aβ (25-35) 20 μmol/L; cultured rat embryo cerebral cortex nerve cells
# Text: The effect of inhibiting the death of cultured nerve cell induced by Aβ was examined by a modification of the method described in Brain Research, Vol. 639, Page 240 (1994).
# (§1) Cerebral cortex excised from the brain of an embryo of Wistar rat (embryonal age 17-19 days) was cut into small pieces and then treated with trypsin to dissociate the nerve cells. The cells were spread onto a 48-well tissue-culture plate at a rate of 1×10^5 cells per well, and cultured under a condition of 5% carbon dioxide, 37° C., in a Dulbecco modified Eagle medium to which B27 additives (product of GIBCO BRL) and 3.6 mg/mL glucose were added.
# When the cultured had been continued for 12-13 days, a solution of potassium chloride was added so as to give a final concentration of 25 mmol/L, immediately after which a test agent was added. Twenty four hours after addition of the test agent, Aβ (25-35 peptide residues) dissolved in distilled water was added so as to give a final concentration of 20 μmol/L. Twenty four hours after addition of Aβ, the medium was changed to a medium prepared by adding test compound to Dulbecco modified Eagle medium to which B27 and 3.6 mg/mL glucose were added.
# The inhibitory activity of test agent on the cultured nerve cell death was expressed by using the activity of inhibiting the decrease of MTT reducing ability as an index. That is, 48 hours after changing the medium, MTT assay developed by Mossmann [Journal of Immunological Methods, Vol. 65, Page 55 (1983)] was carried out, and the inhibition rate (%) of the agent on the decrease of MTT assay value induced by Aβ was calculated.
# Inhibition rate=[(Aβ+MTT assay value of agent−added group)−(MTT assay value of Aβ−added group)]÷[MTT assay value of no addition group−MTT assay value of Aβ−added group]×100
# [2] = system: sciatic nerve; assay: Nerve-regeneration promoting activity (crushed sciatic nerve); assay type: in vivo; settings: 10 mg/kg intra-abdominally, 1 hour after crushing then twice per day for 5 days, SD rats, measured six days after operation
# Procedure: The test was carried out according to the description of Experimental Neurology, Vol. 140, Page 198 (1996). SD rats (male, 6 weeks age, body weight 160-200 g) were anesthetized with Pentobarbital. The left sciatic nerve was exposed from the upper femoral muscular texture and peeled off from the surrounding texture, while taking care so as to give no injury to the muscular fiber. […] The crushed zone was marked with a thread at the end of neurilemma, and the operated portion was sutured. One hour after the crushing, a test compound dissolved in physiological salt solution was administered intra-abdominally at a dosage of 10 mg/kg. Thereafter, the same administration as above was repeated twice per day far 5 days. Six days after the operation, the operated portion was again opened under an anesthesia using Pentobarbital to expose the sciatic nerve, and a forceps was made to contact to the nerve from a position about 25 mm distant from the crushed part. The forceps was slowly moved toward the crushed part until a reflex reaction appeared. […] To the control group, only a saline was given. The sciatic nerve regeneration rate of the test compound was calculated according to the following equation: (Regeneration distance in administration group)÷(Regeneration distance in control group)×100(%)
# [3] = system: ddY male mice; assay: Anti-hypoxic activity; assay type: in vivo; settings: 100 mg/kg orally, 30 minutes after administration, gas 4% oxygen / 96% nitrogen at 5 L/minute
# Procedure: A test compound (100 mg/kg) dissolved in distilled water is orally administered to ddY male mice of 5-6 weeks age (6-10 heads per group). Thirty minutes after the administration, each mouse was introduced into a glass vessel, and a gas mixture consisting of 4% of oxygen and 96% of nitrogen was passed through the glass vessel at a rate of 5 L/minute. The period of the time from the beginning of sending the gas to the death of the animal was measured.
# To the control group, only distilled water was orally given. Anti-hypoxic activity of test compound was calculated according to the following equation:
# (Survival time of mouse in administered group)÷(Survival time of mouse in control group)×100(%)
# [4] = system: cultured nerve cells death induced by HNE; assay: Activity of inhibiting the HNE-induced nerve cell death (MTT assay); assay type: cell-based, Wistar rat; settings: 0.1 μM; HNE 25 μmol/L; cultured rat embryo cerebral cortex nerve cells; 24 hours
# Text: The protecting effect against the death of cultured nerve cells induced by HNE was examined by a modification of the method described in the Journal of Neuroscience, Vol. 17, Page 5089 (1997).
# as §1, with “5×10^5” for “1×10^5”, “10% fetal calf serum” for “B27 additives (product of GIBCO BRL)”
# In order to inhibit the proliferation of glia cells, cytosine arabinoside was added so as to give a final concentration of 10 μmol/L, from the day one after starting the culture. When the culture had been continued for 2 days, the medium was changed to a Dulbecco modified Eagle medium to which 10% fetal calf serum and 3.6 mg/mL glucose were added. When the culture had been continued for 7-8 days, a test agent was added, after which HNE was immediately added so as to give a final concentration of 25 μmol/L.
# The inhibitory activity of an agent on the cultured nerve cell death was […] by using the inhibitory activity on the depression of MTT reducing ability as an index. That is, 24 hours after addition of a test agent, MTT assay [Journal of Immunological Methods, Vol. 65, Page 55 (1983)] developed by Mossmann was carried out, based on which inhibitory rate (%) of the agent on the decrease of MTT assay induced by HNE was calculated.
# Inhibitory rate=[MTT assay value of (HNE+agent)−added group)−(MTT assay value of HNE−added group)]÷(MTT assay value of no addition group−MTT assay value of HNE−added group)]×100
# [5] = system: nerve cell death caused by Aβ; settings: Society for Neuroscience, Abstracts, Vol. 24, No. 1, Page 228 (1998); cited from earlier work
# [6] = system: NGF; settings: WO96/12717; cited from earlier work
compound,measurement,setting,value
2-[[2-(3-Benzo[b]thiophen-5-ylpropyl)-ethyl](methyl)amino]-1-ethanol oxalate [Example 119],Inhibition rate on the decrease of MTT assay value induced by Aβ,[1],39%
CCN(CC)CCOCCc1ccc2sccc2c1.O=C(O)C(=O)O [Example 10],Regeneration rate of sciatic nerve: (regeneration distance in administration group)÷(regeneration distance in control group)×100,[2],117%
same,Anti-hypoxic activity: (survival time of mouse in administered group)÷(survival time of mouse in control group)×100,[3],170%
same,Inhibitory rate on the decrease of MTT assay induced by HNE,[4],58%
CN(C)CCOCCc1ccc2sccc2c1.Cl [Example 16],Regeneration rate of sciatic nerve: (regeneration distance in administration group)÷(regeneration distance in control group)×100,[2],115%
same,Anti-hypoxic activity: (survival time of mouse in administered group)÷(survival time of mouse in control group)×100,[3],158%
"CCN(CC)CCOCCc1ccc2sc(-c3ccccc3)cc2c1.Cl [Example 27, N,N-Diethyl-N-{2-[2-(2-phenylbenzo[b]-thiophen-5-yl)ethoxy]ethyl}-amine hydrochloride]",Regeneration rate of sciatic nerve: (regeneration distance in administration group)÷(regeneration distance in control group)×100,[2],126%
same,melting point,,131 to 138 °C
"CN(CCO)CCOCCc1ccc2sccc2c1.O=C(O)C(=O)O [Example 68, 2-{[2-(2-Benzo[b]thiophen-5-ylethoxy)ethyl]-(methyl)amino}-1-ethanol oxalate]",Inhibition rate on the decrease of MTT assay value induced by Aβ,[1],28%
same,response vs control in vivo at 100 mg/kg,"[3]; Mus musculus, po, 0.5 h, read-out: Anti-hypoxic activity: (survival time of mouse in administered group)÷(survival time of mouse in control group)×100",202%
same,Inhibitory rate on the decrease of MTT assay induced by HNE,[4],57%
"CN(CCO)CCOCCc1c(F)cc2ccsc2c1F.Cl [Example 137, 2-[{2-[2-(5,7-Difluorobenzo[b]thiophen-6-yl)ethoxy]ethyl}(methyl)amino]-1-ethanol hydrochloride]",Inhibition rate on the decrease of MTT assay value induced by Aβ,[1],37%
same,melting point,,95.5 to 97.5 °C
"CCN(CC)CCOC[C@H](O)c1ccc2sccc2c1.Cl [Example T-588, (R)-1-(benzo[b]thiophen-5-yl)-2-[2-(N,N-diethylamino)ethoxy]ethanol hydrochloride]",Protective action on the nerve cell death caused by Aβ,[5],protective action
same,Activity of reinforcing the function of NGF,[6],activity of reinforcing the function of NGF
